Tested on: Cryptosporidium parvum
Experiment: MMV: Cryptosporidium parvum oocysts (Iowa Strain) were prepared for use by treatment with 10 mM HCl (37 degrees C, 10 min) followed by 2 mM sodium taurocholate in phosphate-buffered saline (PBS) with Ca2+ and Mg2+ (16 degrees C, 10 min) in order to stimulate excystation. The high-throughput screen was carried out by inoculating >90% confluent human ileocecal adenocarcinoma (HCT-8) cells (ATCC) with ~5.5 x 10^3 primed oocysts per well. Experimental compounds or DMSO (vehicle) were added three hours after infection, and cells were incubated for 48 hours.
Assay type: functional

| Structure (SMILES) | Inhibition [%] |
| --- | --- |
| CCN1CCN(c2c(C(=O)c3ccccc3)cnc3cc(OC)c(OC)cc23)CC1 | -1.231 |
| COc1ccc(-c2cc(=O)oc3c4c(ccc23)OCN(Cc2ccc(F)cc2)C4)cc1 | -0.4054 |
| CN(N=O)C1=C(NC2CCCCC2)C(=O)c2ccccc2C1=O | -6.459 |
| CC1CCN(Cc2ccc(NC(=O)c3cc4ccc5cccnc5c4[nH]3)cc2)CC1 | -17.38 |
| Cc1c(C)n(CC(O)CNC2CCCCC2C)c2ccccc12 (centres undefined) | -20.79 |
| CCCCc1c(C)nc2c(OC)cccc2c1O | -24.29 |
| CC1CCN(Cc2c(O)ccc3cc(-c4nc5ccccc5s4)c(=O)oc23)CC1 | -9.182 |
| Cl.Cn1c(=O)n(C)c2cc(CNCCNc3ccnc4cc(Cl)ccc34)ccc21 | 20.67 |
| CCOc1cc2c(cc1OCC)C(c1cc(OC)c(O)cc1Cl)NCC2 (centres undefined) | -16.38 |
| CN(C)CCCNc1c2ccccc2nc2ccccc12 | 55.64 |
| CCOC(=O)C1=C(c2ccccc2)N=c2sc(=Cc3cc(C)n(-c4ccc(F)cc4)c3C)c(=O)n2C1c1cccc(OC)c1OC (centres undefined) | -76.69 |
| CCOc1ccccc1CNC(=O)C1c2ccccc2C(=O)N(CC(C)C)C1c1cccs1 (centres undefined) | -30.75 |
| COc1ccc(-c2nonc2NC(=O)c2cccc(Cl)c2)cc1OC | 23.52 |
| CC(C)c1ccc(CNCC(O)c2ccccc2)cc1.Cl (centres undefined) | 13.18 |
| COc1ccc(CCN2CCC(CN(C)Cc3cnn(-c4ccccc4)c3)CC2)cc1 | -0.7856 |
| Cc1cc(Nc2ccc3ccccc3c2)n2ncnc2n1 | -10.13 |
| CCN(CC)CCCNc1nc(-c2ccc(Cl)cc2)nc2ccccc12 | -30.51 |
| CC(C)CCNCC(O)Cn1c2ccccc2c2ccccc21.Cl (centres undefined) | 46.75 |
| CCN(CC)CCNc1ccnc2cc3ccccc3cc12.O=P(O)(O)O | 3.908 |
| N=c1c2ccccc2nnn1-c1cccc(C(F)(F)F)c1 | 6.889 |
| Cc1ccc(NC(=O)Nc2cccc(Cl)c2)cc1F | -0.4391 |
| COc1ccc(CN2CCCC(C(=O)c3ccc(C(F)(F)F)cc3)C2)c(O)c1 (centres undefined) | -4.732 |
| CC1=C(CC(=O)c2cccc([N+](=O)[O-])c2)C(=O)c2ccccc2C1=O | -15.31 |
| CCOc1ccc(Nc2ccnc3cc(Cl)ccc23)cc1 | -43.83 |
| COc1ccc(C=C2SC(=N)N(c3ccccc3OC)C2=O)cc1 | 10.76 |
| COc1ccc(C(=O)Nc2nonc2-c2ccc(OC)c(OC)c2)cc1Cl | 4.722 |

| Structure (SMILES) | Inhibition [%] |
| --- | --- |
| Cc1cccc(-n2ncc3c(O)nc(-n4nc(C)cc4NC(=O)c4cc5ccccc5o4)nc32)c1 | 82.48 |
| CCCCc1ccc(NS(=O)(=O)c2cc3c4c(c2)CCN4C(=O)CC3)cc1 | 4.064 |
| CCCN(CCC)CCCNC(=O)c1cc2c(-c3ccc(OC)c(OC)c3)nn(C)c2s1 | 32.69 |
| CC(=O)c1ccc(NC(=O)CSc2nc(-c3ccccc3Cl)ns2)cc1 | 23.33 |
| COc1cc(C(=O)Nc2nc3c(cc4c5c(cccc53)CC4)s2)cc(OC)c1OC | -26.05 |
| CC1CCCCN1CCCNC(=O)c1ccc2c(c1)sc1nc(-c3ccc(F)cc3)cn12 (centres undefined) | 7.741 |
| Br.CCn1c2c(c(=N)c3c1CCC3)CCCC2 | 9.729 |
| CCOC(=O)C1=C(C)N=c2sc(=Cc3cc(Cl)ccc3O)c(=O)n2C1c1ccc(OC)cc1 (centres undefined) | -31.98 |
| CCOc1c(Cl)cc(CNC(C)C(O)c2ccccc2)cc1OC (centres undefined) | -2.917 |
| CN1CCN(c2ccc(Nc3c4ccccc4nc4ccccc34)cc2)CC1 | 7.066 |
| CCOc1cc(CNC(C)C(O)c2ccccc2)cc(Cl)c1OCC (centres undefined) | 29.95 |
| CCCCCCC(O)(c1ccc(F)cc1)C(CN1CCOCC1)c1ccccc1.Cl (centres undefined) | 35.55 |
| O=C(Nc1ccc(Cl)c(Cl)c1)Nc1ccc(Cl)c(Cl)c1 | 79.74 |
| Cc1ccc(CN2CCC(C(=O)Nc3ccc(-c4cc5ccccc5[nH]4)cc3)CC2)o1 | 45.39 |
| Cc1ccc(F)cc1NC(=O)c1cc(Cl)ccc1Nc1ccccc1 | -36.44 |
| COc1cc2c3cc1Oc1c(OC)c(OC)cc4c1C(Cc1ccc(O)c(c1)Oc1ccc(cc1)CC3N(C)CC2)N(C)CC4.Cl (centres undefined) | -14.29 |
| Cc1sc(NC(=O)c2ccco2)c(C(c2cccnc2)N2CCC(Cc3ccccc3)CC2)c1C (centres undefined) | -7.724 |
| c1ccc(/C2=N/c3ccccc3/N=C(/c3ccccc3)c3ccccc32)cc1 | 8.997 |
| O=C(O)C(=O)O.Oc1ccccc1CN1CCN(C(c2ccccc2)c2ccccc2)CC1 | -3.109 |
| Cc1ccnc(NC(c2cccc(OCc3ccccc3)c2)c2ccc3cccnc3c2O)c1 (centres undefined) | 80.24 |
| CCN(CC)c1ccc(NC(=O)c2cccs2)cc1 | -55.73 |
| O=[N+]([O-])c1ccc(C=NNc2nc3ccccc3[nH]2)cc1 | -55.94 |
| O=C(Nc1ccc(CN2CCOCC2)cc1)c1ccc(-c2cc(Cl)ccc2Cl)o1 | 9.568 |
| CCOC(=O)c1c(NC(=O)c2ccccc2)sc2c(O)c(CN(CC)CC)ccc12 | 50.63 |
| CCC(O)c1ccc(Br)cc1NC(=O)c1cccc(Cl)c1 (centres undefined) | 15.79 |
| CCN(CC)c1cc(C)c2cc(NC(=O)c3cccc(OC)c3)ccc2n1 | -27.53 |

| Structure (SMILES) | Inhibition [%] |
| --- | --- |
| CCCCCn1c(=N)n(CC(O)COc2cccc(C)c2)c2ccccc21.Cl (centres undefined) | -6.708 |
| COCCn1c(C)nc2ccccc2c1=O | -17.93 |
| CCOc1cccc(C(=O)Nc2ccc(-c3nc4ccccc4[nH]3)cc2)c1 | -2.618 |
| CCc1c(C)c(=N)c2ccccc2n1C.I | 11.41 |
| CC(C)=CCN1CCC(C(=O)Nc2ccc(-c3nc4ccccc4[nH]3)cc2)CC1 | -41.53 |
| CCOc1ccc(-c2nonc2NC(=O)c2cccc(C)c2)cc1OCC | 2.223 |
| Cc1ccc2cc3c(N)c4c(C)ccc(C)c4nc3nc2c1 | -22.09 |
| CC(C)(C)c1ccc(O)c(CNC2CCCCC2)c1 | -70.4 |
| N#Cc1nc(Cc2cccc3ccccc23)oc1N1CCN(C(c2ccccc2)c2ccccc2)CC1 | -4.219 |
| CSC1=NC(=Nc2c(C)cccc2C)C2(CCC(C(C)(C)C)CC2)N1c1ccc(Cl)cc1 (centres undefined) | -57.3 |
| Oc1ccccc1CN1CCC2(CCCN(Cc3ccccc3F)C2)C1 (centres undefined) | -2.723 |
| CCOc1c(Br)cc(C2C(C(=O)OC)=CN(C)C=C2C(=O)OC)cc1OC | -4.752 |
| O=C(NC1CCN(Cc2ccccc2)CC1)c1cc(-c2cccnc2)nc2ccc(Cl)cc12 | -40.68 |
| c1ccc(-c2ccc(-c3nc4ccccc4[nH]3)cc2)cc1 | 27.1 |
| CN(C)CCCNCc1ccc(-c2ccc(F)c(Cl)c2)o1.Cl | -9.329 |
| COc1ccc(C(=O)Nc2ccc3nc(N4CCCCC4)cc(C)c3c2)cc1OC | 6.852 |
| Nc1ccc(-c2nc3cc(Cc4ccc5[nH]c(-c6ccc(N)cc6)nc5c4)ccc3[nH]2)cc1 | -51.86 |
| CCOc1ccccc1NC(=O)CN1CCN(C(=O)c2ccco2)CC1 | -43.69 |
| O=C(NC1CCN(Cc2ccccc2)CC1)c1cc(-c2ccncc2)nc2ccc(Cl)cc12 | 13.62 |
| CCOc1cc(Br)c(C(C)NC(=O)c2cccc(OC)c2)cc1OCC (centres undefined) | -25.9 |
| Cc1ccc(N2C(=O)C3C(C2=O)C2(c4ccccc4)C(=O)C3(c3ccccc3)C(c3ccccc3)=C2c2ccccc2)cc1 (centres undefined) | -46.86 |
| COc1cc2c(cc1OC)C1=NNC(=O)C1=NC(C)(C)C2 | -25.43 |
| CC(C)(C)C(=O)Nc1ccc(C(=O)Nc2cccc(-c3nc4ccccc4[nH]3)c2)cc1 | 18.85 |
| CCCc1c(C)nc2ccccc2c1O | -14.82 |
| COc1ccc(NC(=O)C2c3ccccc3C(=O)N(CC(C)C)C2c2cccs2)cc1Cl (centres undefined) | -10.67 |
| CCCCCCOC(=O)C1=C(C)NC(=O)NC1c1ccccc1F (centres undefined) | -26.01 |

| Structure (SMILES) | Inhibition [%] |
| --- | --- |
| CC(=O)c1sc(NC(=O)Nc2ccc(C)cc2C)nc1C | -18.27 |
| Cc1ccc(OCCCCCCNCCO)c(C)c1 | -13.88 |
| OC1CCCCC1C1(NC(=S)Nc2ccccc2)CCCCC1 (centres undefined) | 3.232 |
| CCN(CC)CCNc1ccnc2cc(Cl)ccc12 | -45.62 |
| CC(=O)NCCc1nc2ccccc2n1Cc1ccc(C(C)C)cc1 | 0.2505 |
| CCOC(=O)c1cnc2c(C)cc(C)cc2c1Nc1ccc(OC)c(OC)c1 | -30.02 |
| CCCCNCC(O)(c1ccc(Cl)cc1)c1ccc(Cl)cc1 | 9.548 |
| COc1ccc(-c2cc3c(nn2)-c2ccccc2C3=O)cc1 | -19.28 |
| CCCCN(CCCC)S(=O)(=O)c1ccc(NC(=O)c2ccco2)cc1 | -29.51 |
| CN(C)c1ccc(C=Cc2nc(=O)c3ccccc3o2)cc1 | -61.37 |
| CC(C)(C)CC(C)(C)NCC(O)COc1ccc(Cl)cc1Cl (centres undefined) | 15.77 |
| Cc1ccc(Cl)cc1N1CCN(CCCNC(=O)C2CCN(c3nc4ccccc4[nH]3)CC2)CC1 | -53.53 |
| CCOC(=O)C1=CN(C)C=C(C(=O)OCC)C1c1cc(Br)c(OCC)c(OC)c1 | -2.299 |
| COc1ccc(Nc2nc(NCc3ccccc3)c3ccccc3n2)cc1 | 49.98 |
| CCOc1cc(Cl)c(C(C)NC(=O)c2ccccc2)cc1OCC (centres undefined) | 5.189 |
| Cc1ccc(C)c(Cn2c(N3CCC(C(=O)NCc4cccs4)CC3)nc3ccccc32)c1 | -14.3 |
| CCc1ccc(Nc2cc(C)nc3nc(C)nn23)cc1 | -3.889 |
| COc1cc(C(=O)ON=C(N)Cc2cccc3ccccc23)cc(OC)c1OC | 26.07 |
| COc1cccc(C2(C)Nc3ccccc3-c3nc4ccccc4n32)c1 (centres undefined) | -28.25 |
| CCCc1c(CC)c(=N)c2ccccc2n1C | -20.98 |
| OC(CNC1CCCCC1)Cn1c2ccc(I)cc2c2cc(I)ccc21 (centres undefined) | 25.2 |
| Cc1nc2ccccc2c(O)c1CC=C(Cl)Cl | -7.486 |
| O=C(Nc1ccc(F)c(Cl)c1)Nc1ccc(Cl)c(Cl)c1 | 36.98 |
| Oc1ccc2ccccc2c1CNc1nc2ccccc2[nH]1 | -48.76 |
| COc1ccc(-c2nc(N3CCN(C(=O)C4CCCCC4)CC3)c3c4c(sc3n2)CCCC4)cc1 | -3.496 |
| FC(F)(F)c1ccc(Nc2nnnc3ccccc23)cc1 | -4.73 |

Source: ChEMBL document CHEMBL3137356, “MMV Box Cryptosporidium parvum screening set”
